This is an account of results in ChEMBL document CHEMBL3352607, “Exploiting the anti-HIV 6-desfluoroquinolones to design multiple ligands” (Bioorg Med Chem, 2014).

Series [1] has as its target T1, Human immunodeficiency virus type 1 reverse transcriptase (Human immunodeficiency virus 1, UniProt Q72547). Nature of the series: Inhibition of HIV reverse transcriptase.
For series [2], the system named is Human immunodeficiency virus 1. Kind of series: Antiviral activity against HIV1 latently infected in PMA-stimulated human OM10.1 cells assessed as reduction in p24 antigen levels pre-incubated for 2 hrs with host cells followed by 2 day incubation. The format is functional, organism-based.
The target in series [3] is T1, Human immunodeficiency virus type 1 reverse transcriptase. Kind of series: Inhibition of HIV1 recombinant wild type reverse transcriptase p66/p51 using dsDNA by microplate reader based assay.
Series [4] in a line: Cytotoxicity against human OM10.1 cells by MTT assay. The format is cell-based.
For series [5], the system named is Human immunodeficiency virus 2. Kind of series: Antiviral activity against HIV2 ROD acutely infected in human MT4 cells assessed as inhibition of virus-induced cytopathogenic effect after 5 days by MTT assay. The format is functional, organism-based. As to conditions: Human immunodeficiency virus 2, ISOLATE ROD, MT4, 120 h. For orientation: Cytopathic effects are the visible damage that an infection or toxin causes in cultured cells.

The test system of series [6] is Human immunodeficiency virus 1. Kind of series: Antiviral activity against HIV1 3B acutely infected in human MT4 cells assessed as inhibition of virus-induced cytopathogenic effect after 5 days by MTT assay. Type of series: functional, organism-based. As to conditions: Human immunodeficiency virus 1, 3B, MT4, 120 h.
The next series concerns HeLa. Nature of the series: Cytotoxicity against human HeLa cells at 10 uM to 200 uM after 24 hrs. The format is cell-based.
A short description of series [7]: Selectivity index, ratio of CC50 for human OM10.1 cells to IC50 for HIV1 latently infected in human OM10.1 cells. Type of series: functional.
Series [8] is described as follows: Cytotoxicity against mock-infected human MT4 cells after 5 days by MTT assay. Type of series: cell-based.
For series [9], the target named is T2, Protein Tat (Human immunodeficiency virus type 1 group M subtype B (isolate HXB2)(HIV-1)) (UniProt P04608).
T2 sequence (whole entry): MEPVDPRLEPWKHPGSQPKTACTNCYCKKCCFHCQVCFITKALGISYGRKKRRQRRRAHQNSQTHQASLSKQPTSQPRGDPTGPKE
Kind of series: Inhibition of HIV1 Tat-mediated transactivation of HIV1 long terminal repeat in human HeLa cells after 24 hrs by LTR driven luciferase reporter assay. The format is cell-based. To be noted: Human immunodeficiency virus 1. On the technique in general: Reporter assays use an easily measured gene product as a stand-in for the process of interest.

Structures are written as SMILES. pEC50, pIC50: −log10 of the molar value. Active and inactive are the calls of the source. The calls are words filed in the database; no cut-off is given here. A value given as a limit tells only on which side of the number the result lay.

The molecule `CCN1c2ncc(CCOc3cc[n+]([O-])c4ccccc34)cc2C(=O)N(C)c2cccnc21` [BILR 355] gave a negative logarithm of the IC50 (pIC50) in [1] of 7.77.
On to `Cn1cc(C(=O)O)c(=O)c2cc(N)c(N3CCN(c4ccccn4)CC3)cc21`, for which the pEC50 in series [2] is 7.12; in [5], 6.60; in [6], 6.82. Besides, the pIC50 in series [3] is 3.10. In series [4], this molecule returned a CC50 of 31.2 µM.
In the case of `CCN1c2ncccc2NC(=O)c2ccc(N3CCN(c4cc5c(cc4N)c(=O)c(C(=O)O)cn5C)CC3)nc21`, in the series on HeLa, the Activity result is listed as “Non-toxic”. In addition, the figures for the negative-log EC50 (pEC50) in [2], in [5] and in series [6] were 5.29, less than 4.63 and less than 4.63, respectively. Also, the “Ratio CC50/IC50” value in series [7] was 4. Moreover, in series [3], the negative logarithm of the IC50 (pIC50) was 5.08. Besides, half-maximal cytotoxicity in [8] (CC50 at 120 h) was put at 23.5 µM. Also, half-maximal cytotoxicity in [4] (CC50) was put at 18.4 µM. Moreover, the inhibition entry in series [9] is “Dose-dependent effect”.
Consider `CCN1c2ncccc2NC(=O)c2cc(NCCNc3cc4c(cc3N)c(=O)c(C(=O)O)cn4C)cnc21`, for which the pIC50 in series [3] was 4.13. Also, the CC50 at 120 h in [8] is more than 200 µM. Moreover, the inhibition result in series [9] was “inactive”. The pEC50 in series [5] and in series [6] was less than 3.70 each time.
Regarding `CCN1c2ncccc2NC(=O)c2cc(N3CCN(c4cc5c(cc4N)c(=O)c(C(=O)O)cn5C)CC3)cnc21`, the pIC50 in [3] is 4.83. In series [8], the CC50 at 120 h came out at 25.7 µM. Moreover, the inhibition entry in series [9] is “inactive”. The pEC50 in [5] and in [6] was less than 4.59 throughout.
With `Cc1ccnc2c1NC(=O)c1cccnc1N2C1CC1` [NEVIRAPINE], in [8], the 50% cytotoxic concentration (CC50) at 120 h was more than 15 µM. In [5], the negative-log EC50 (pEC50) is less than 4.82.

One may read the pIC50 as −log10 of the IC50, conventionally taken in molar units. One may read the pEC50 as −log10 of the EC50, conventionally taken in molar units. By CC50 is commonly meant the concentration at which the toxic effect on the cells reaches its halfway point. Read a high CC50 as better tolerance by the cells.
